This is an account of results in patent publication US9480695B2, “Methods for inducing orexin neurons and agent for treating narcolepsy or eating disorder” (THE UNIVERSITY OF TOKYO, priority 2011, dated 2016).

The assay has as its system orexin gene-expressing cells (orexin neuron) in the lateral hypothalamic area. As to the kind of experiment: Increase in orexin neuron in vivo, in situ hybridization of lateral hypothalamic area of old mouse. The note with it: old mouse C57BL/6 male, 5 mg/ml in drinking water, 8 weeks from 53- to 61-week-old, versus non-administration old mouse; FIG. 12. How it is done:
ManNAc was dissolved in drinking water, and the drinking water with a concentration of 5 mg/ml was administered to old mouse (C57BL/6, male) by allowing free access to water for 8 weeks in total from 53-week-old to 61-week-old. After completion of the administration, the aforementioned mouse was immediately perfusion fixed and subjected to in situ hybridization method. As a control group, ManNAc non-administration old mouse (61-week-old at the time point of fixing) and young mouse (10-week-old at the time point of fixing) were used.
Each three mice of ManNAc administration and control groups were anesthetized with Nembutal, and perfusion fixed with formamide fixative (Genostaff). The brain was removed, embedded in paraffin, and 6 μm-thick sections were prepared in the sagittal section direction. […]
was cloned into a […] vector (Promega) and, using the plasmid as a template and DIG RNA Labeling Mix (Roche), a digoxygenin-labeled RNA probe was produced. […] The cells that expressed orexin gene were counted and the average of three animals and the standard error were determined.

Structures are written as SMILES.

On to `CC(=O)N[C@@H]1C(O)O[C@H](CO)[C@@H](O)[C@@H]1O` (stereo partly drawn) [ManNAc, N-acetyl-D-mannosamine], for which the “number of orexin gene-expressing cells (orexin neuron) in the lateral hypothalamic area” value was “orexin neuron increased”.
